What was measured:
[1] = biological target: T1, human A2BAR (Homo sapiens, UniProt P29275); assay: Radioligand binding, human A2BAR ([3H]DPCPX, transfected HEK-293 cells); conditions: displacement of [3H]DPCPX, human HEK-293 cells, n=3, racemic mixtures; read-out: Ki hA2B
T1 construct: expressed in transfected cells; host or cells: HEK-293
T1 sequence (P29275 1-332): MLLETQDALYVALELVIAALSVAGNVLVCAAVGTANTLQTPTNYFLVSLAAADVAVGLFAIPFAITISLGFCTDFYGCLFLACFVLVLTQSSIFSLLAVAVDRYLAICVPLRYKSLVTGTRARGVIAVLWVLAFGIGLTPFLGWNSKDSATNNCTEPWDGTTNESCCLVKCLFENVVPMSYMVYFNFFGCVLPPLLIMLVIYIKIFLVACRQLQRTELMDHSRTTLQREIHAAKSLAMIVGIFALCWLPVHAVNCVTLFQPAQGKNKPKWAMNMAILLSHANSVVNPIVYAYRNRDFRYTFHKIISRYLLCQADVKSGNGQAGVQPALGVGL
Procedure: (§1) The affinity and selectivity profiles of the ligands obtained was studied in vitro, radioligand binding assays, at the four human specific ARs subtypes, using experimental protocols previously described.[28–30] All ligands were prepared and tested as racemic mixtures. […] Non-specific binding was determined in the presence of R-PIA 10 µM for A1AR, NECA 50 µM for A2AAR, NECA 400 μΜ for A2BAR and R-PIA 100 μΜ for A3AR.

[2] = biological target: T2, human A3AR (Homo sapiens, UniProt P0DMS8); assay: Radioligand binding, human A3AR ([3H]NECA, transfected HeLa cells); conditions: displacement of [3H]NECA, n=3, racemic mixtures, read-out: Ki hA3
T2 construct: expressed in transfected cells; host or cells: HeLa
T2 sequence (P0DMS8 1-318): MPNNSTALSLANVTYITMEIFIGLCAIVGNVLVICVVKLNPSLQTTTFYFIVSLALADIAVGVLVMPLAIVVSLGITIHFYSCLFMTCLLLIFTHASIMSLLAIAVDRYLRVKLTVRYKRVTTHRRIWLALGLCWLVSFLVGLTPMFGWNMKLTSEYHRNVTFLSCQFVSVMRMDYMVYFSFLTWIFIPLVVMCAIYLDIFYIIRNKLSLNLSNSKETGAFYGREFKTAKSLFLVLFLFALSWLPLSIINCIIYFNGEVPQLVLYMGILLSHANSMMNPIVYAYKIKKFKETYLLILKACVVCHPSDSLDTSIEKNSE
Procedure: as §1

[3] = biological target: T3, human A1AR (Homo sapiens, UniProt P30542); assay: Radioligand binding, human A1AR ([3H]DPCPX, transfected CHO cells); conditions: displacement of [3H]DPCPX, transfected CHO cells, n=3, racemic mixtures; read-out: Ki hA1
T3 construct: expressed in transfected cells; host or cells: CHO
T3 sequence (P30542 1-326): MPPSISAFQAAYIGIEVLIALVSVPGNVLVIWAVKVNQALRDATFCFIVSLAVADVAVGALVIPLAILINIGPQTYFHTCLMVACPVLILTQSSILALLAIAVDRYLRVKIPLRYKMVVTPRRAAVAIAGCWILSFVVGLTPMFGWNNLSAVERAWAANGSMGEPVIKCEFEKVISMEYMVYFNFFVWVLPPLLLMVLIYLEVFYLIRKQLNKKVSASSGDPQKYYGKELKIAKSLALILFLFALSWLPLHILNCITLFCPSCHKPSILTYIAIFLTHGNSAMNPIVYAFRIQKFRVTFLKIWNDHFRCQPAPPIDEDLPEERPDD
Procedure: as §1

[4] = biological target: T4, human A2AAR (Homo sapiens, UniProt P29274); assay: Radioligand binding, human A2AAR ([3H]ZM241385, transfected HeLa cells); conditions: displacement of [3H]ZM241385, human HeLa cells, n=3, racemic mixtures; read-out: Ki hA2A
T4 construct: expressed in transfected cells; host or cells: HeLa
T4 sequence (P29274 whole entry): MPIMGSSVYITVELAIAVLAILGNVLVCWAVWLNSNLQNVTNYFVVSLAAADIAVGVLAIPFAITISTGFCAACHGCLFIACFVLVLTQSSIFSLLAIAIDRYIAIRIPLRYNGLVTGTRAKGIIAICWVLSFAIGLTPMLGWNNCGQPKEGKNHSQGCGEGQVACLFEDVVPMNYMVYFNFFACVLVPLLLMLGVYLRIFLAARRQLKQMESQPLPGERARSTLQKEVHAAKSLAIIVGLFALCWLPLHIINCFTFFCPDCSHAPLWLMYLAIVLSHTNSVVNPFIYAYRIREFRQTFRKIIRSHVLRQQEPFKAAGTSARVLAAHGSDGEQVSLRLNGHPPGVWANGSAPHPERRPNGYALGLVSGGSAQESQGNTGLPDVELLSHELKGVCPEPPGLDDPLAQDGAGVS
Procedure: as §1

Measured: Ki

CC1=C(C(=O)OC(C)C)C(c2ccco2)N2C(=N1)N(Cc1ccccc1F)c1ccccc12 (stereo not shown) [ISAM-R56B]
> 1000 nM: all assays above

From PMC9115112, “A2B adenosine receptor antagonists rescue lymphocyte activity in adenosine-producing patient-derived cancer models” (Journal for Immunotherapy of Cancer, 2022)
